Measured values published in patent publication US9023858B2, “Substituted pyrido[2,3-d]pyrimidines as delta-5-desaturase inhibitors” (Takeda Pharmaceutical Company Limited, priority 2010, dated 2015).
Where a name gives a salt, the structure may show the parent alone.

Experiments:
delta-5-desaturase [1] = molecular target: T1, delta-5-desaturase (Rattus norvegicus, UniProt Q920R3); assay: Delta-5-desaturase inhibitory activity using rat liver microsome; assay type: biochemical; details: test compound 10 μM
T1 construct: a rat liver microsome fraction (10 μl) diluted to 3 mg/ml with a microsome buffer; from tissue; host or cells: rat liver microsome fraction
Description: Delta-5-Desaturase Inhibitory Activity Using Rat Liver Microsome
The inhibitory activity of the test compound on delta-5-desaturase was measured by the method described below. To a solution of the test compound in DMSO prepared in advance was secondarily diluted with a buffer (300 mM NaH2PO4 [pH 7.4], 450 mM KCl, 30 mM NaF, 9 mM MgCl2, 4.5 mM glutathione [reduced form], 0.3% BSA [fatty acid free, SIGMA]) to give an assay buffer. The assay buffer (10 μl) was dispensed to a polypropylene deep 96-well block, and a rat liver microsome fraction (10 μl) diluted to 3 mg/ml with a microsome buffer (10 mM Tris-HCl [pH 7.4], 1 mM EDTA, 250 mM sucrose) was added. The enzyme reaction was started by adding 9 mM NADH, 9 mM ATP, 0.9 mM CoA, 10 μCi/ml (8E,11E,14E)-(1-^14C)eicosa-8,11,14-trienoic acid (PerkinElmer Inc.) (10 μl). The enzyme reaction was performed for 120 min at room temperature, and discontinued by the addition of 10 μl of 2.5M NaOH. After discontinuation of the reaction, the plate was sealed and incubated overnight at 55° C. to allow saponification. The fatty acid was extracted with solvent based on the Bligh & Dyer method described in Can. J. Biochem. Physiol., vol. 37, page 911 (1959) by adding formic acid:methanol:chloroform (1:6:3) (200 μl), maintaining the single layer state, sufficiently stirring the mixture and adding pure water (120 μl) for separation into two layers. The lower chloroform layer (10 μl) was spotted on a reversed-phase TLC plate (RP-18, 1154230001, Merck Japan, Ltd.), developed with acetonitrile:pure water:acetic acid (95:4.5:0.5), and the dried TLC plate was transcribed on Imaging Plate (Fuji Photo Film Co., Ltd.) for 5 hr or longer. The detection was performed using BAS-5000 (Fuji Photo Film Co., Ltd.), and the obtained spot image was numerically converted by Multi Gauge Ver2.3 (Fuji Photo Film Co., Ltd.) and a delta-5-desaturase inhibitory rate (%) of 10 μM test compound was determined.

delta-5-desaturase [2] = molecular target: T1, delta-5-desaturase; assay: Inhibitory activity on binding of [3H]-labelled Reference Example 1 ligand to delta-5-desaturase (rat liver microsome fraction); details: test compound 10 μM; for inhibition at 10 µM: 3 nM tritiated ligand of Reference Example 1, read-out: Binding inhibitory activity against compound bind to delta-5-desaturase Binding inhibition rate (%) at 10 μM
Description: Inhibitory Activity on Binding of N-[2-({4-oxo-3-[4-(2,2,2-trifluoroethoxy)[2,6-^3H2]phenyl]-3,4-dihydrothieno[3,4-d]pyrimidin-2-yl}sulfanyl)ethyl]acetamide (Reference Example 1) to delta-5-desaturase)
All tests were performed at room temperature at 200 μL/well. A rat liver microsome fraction (30 μg/well) was preincubated with a test compound at a final concentration of 10 μM for 15 min in an assay buffer (10 mM Tris-HCl (pH 7.5), 100 mM KCl, 10 mM NaF, 3 mM MgCl2, 0.005% Tween20 and 1 mM GSH). N-[2-({4-oxo-3-[4-(2,2,2-trifluoroethoxy) [2,6-^3H2]phenyl]-3,4-dihydrothieno[3,4-d]pyrimidin-2-yl}sulfanyl)ethyl]acetamide was added to a final concentration of 3 nM and the mixture was incubated for 150 min. For Bound/Free separation, the membrane fraction was added on a GF/C glass filter using a cell harvester. The GF/C glass filter was washed 5 times with 300 μl of ice-cooled assay buffer (without 0.005% Tween) to separate the ligand bound to delta-5-desaturase. 50 μl of MicroScinti 0 was added, and the radioactivity on the filter was measured by TopCount. To evaluate non-specific binding, 10 μM N-[2-({4-oxo-3-[4-(2,2,2-trifluoroethoxy)phenyl]-3,4-dihydrothieno[3,4-d]pyrimidin-2-yl}sulfanyl)ethyl]acetamide was used. The inhibitory rate (%) of the test compound (10 μM) on the binding of N-[2-({4-oxo-3-[4-(2,2,2-trifluoroethoxy) [2,6-^3H2]phenyl]-3,4-dihydrothieno[3,4-d]pyrimidin-2-yl}sulfanyl)ethyl]acetamide to delta-5-desaturase was determined.

delta-5-desaturase [3] = molecular target: T2, delta-5-desaturase (Mus musculus, UniProt Q920L1); assay: Delta-5-desaturase inhibitory action in vivo (liver AA/DGLA ratio in mice); details: 3 mg/kg by gavage for 4 days; male C57BL/6J mice; liver phospholipid fraction; solvent administration group as 100%
T2 construct: the mice were anesthetized, and the liver was isolated; tissue CLEA Japan, Inc; host or cells: liver of C57BL/6J mice (in vivo dosing)
T2 sequence (Q920L1 1-447): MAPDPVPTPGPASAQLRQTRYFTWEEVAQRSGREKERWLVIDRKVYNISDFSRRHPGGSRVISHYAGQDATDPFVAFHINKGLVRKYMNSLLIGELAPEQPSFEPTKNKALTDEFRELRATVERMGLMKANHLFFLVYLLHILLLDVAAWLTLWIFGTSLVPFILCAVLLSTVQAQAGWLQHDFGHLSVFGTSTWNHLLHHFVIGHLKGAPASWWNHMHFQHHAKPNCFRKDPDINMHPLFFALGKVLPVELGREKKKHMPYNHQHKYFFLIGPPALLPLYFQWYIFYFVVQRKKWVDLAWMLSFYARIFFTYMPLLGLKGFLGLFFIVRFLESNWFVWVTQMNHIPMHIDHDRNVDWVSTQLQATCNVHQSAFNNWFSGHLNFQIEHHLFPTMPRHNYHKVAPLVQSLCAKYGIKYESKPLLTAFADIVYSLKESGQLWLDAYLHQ
Description: Delta-5-Desaturase Inhibitory Action In Vivo
The delta-5-desaturase inhibitory action of the test compound in vivo was evaluated by the following method. A suspension of a test compound (3 mg/kg) in 0.5% methylcellulose was administered by gavage every morning at 10 mL/kg for 4 days to 7- to 9-week-old male normal mice (C57BL/6J, CLEA Japan, Inc.) acclimated with a normal chow feed (CE-2, CLEA Japan, Inc.) in individual cages. In the next morning of the final administration, the mice were anesthetized, and the liver was isolated. Total lipid was extracted from about 40 mg of a liver sample with hexane-propanol solution, and a phospholipid fraction was extracted using a solid phase extraction column (Sep-Pak Vac NH2, Waters) and labeled with an esterified long-chain and short-chain fatty acid labeling reagent (YMC). The arachidonic acid and dihomo-γ-linolenic acid contents of the sample after labeling were measured by high performance liquid chromatography (Agilent 1200, Agilent Technologies). The arachidonic acid (AA) content was divided by the content of dihomo-γ-linolenic acid (DGLA) to obtain an AA/DGLA ratio. The decrease rate of the test compound administration group was calculated based on the AA/DGLA ratio of the solvent administration group as 100%, which was used as an index of the liver delta-5-desaturase inhibitory action in vivo.

delta-5-desaturase [4] = molecular target: T3, delta-5-desaturase (Homo sapiens, UniProt O60427); assay: Delta-5-desaturase inhibitory activity using HepG2 cell; assay type: cell-based; details: test compound 1 μM
T3 construct: endogenous in cells; host or cells: HepG2
Description: Delta-5-Desaturase Inhibitory Activity Using HepG2 Cell
HepG2 was plated on a 96-well plate at 1×10^5 cells/well, and cultured overnight in DMEM (Dulbecco's modified Eagle medium) containing 10% FBS (fetal bovine serum). After washing (200 μL×2) with PBS (phosphate buffered saline), 40 μL of a reaction medium (DMEM, penicillin/streptomycin, 0.3% BSA) containing the test compound was added, and the mixture was preincubated in a CO2 incubator at 37° C. for 30 min. The reaction was started by adding a reaction medium (20 μL) containing 0.1 μCi [^14C]Eicosatrienoic acid, and the mixture was incubated in a CO2 incubator at 37° C. Incubation was performed for 3 hr, the cells were washed twice with 200 μL of PBS, detached with 50 μL of trypsin-EDTA and placed on a 96-deep well block. Furthermore, 20 μL of 2.5N NaOH was added, the plate was sealed and incubated overnight at 55° C. to allow saponification. The fatty acid extraction included acidifying with 10 μL of formic acid, adding chloroform:methanol (1:4), stirring, and further adding 200 μL of pure water to separate into two layers. The operation after development with TLC followed the method of detection system using TLC in a system using a rat liver microsome. A delta-5-desaturase inhibitory rate (%) of 1 μM test compound was determined.

T1 sequence (Q920R3 whole entry): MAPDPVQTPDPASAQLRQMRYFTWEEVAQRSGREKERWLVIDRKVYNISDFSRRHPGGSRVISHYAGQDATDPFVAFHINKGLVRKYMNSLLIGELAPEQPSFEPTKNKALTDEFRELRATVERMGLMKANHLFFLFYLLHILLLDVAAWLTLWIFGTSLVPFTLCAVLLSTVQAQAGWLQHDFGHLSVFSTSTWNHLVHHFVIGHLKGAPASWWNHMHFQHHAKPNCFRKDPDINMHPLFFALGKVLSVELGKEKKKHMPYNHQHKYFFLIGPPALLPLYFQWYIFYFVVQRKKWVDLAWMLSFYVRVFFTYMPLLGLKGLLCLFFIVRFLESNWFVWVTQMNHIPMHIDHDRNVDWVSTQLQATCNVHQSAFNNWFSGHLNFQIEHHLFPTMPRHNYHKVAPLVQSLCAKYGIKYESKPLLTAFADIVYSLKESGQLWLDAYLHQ
T3 sequence (O60427 whole entry): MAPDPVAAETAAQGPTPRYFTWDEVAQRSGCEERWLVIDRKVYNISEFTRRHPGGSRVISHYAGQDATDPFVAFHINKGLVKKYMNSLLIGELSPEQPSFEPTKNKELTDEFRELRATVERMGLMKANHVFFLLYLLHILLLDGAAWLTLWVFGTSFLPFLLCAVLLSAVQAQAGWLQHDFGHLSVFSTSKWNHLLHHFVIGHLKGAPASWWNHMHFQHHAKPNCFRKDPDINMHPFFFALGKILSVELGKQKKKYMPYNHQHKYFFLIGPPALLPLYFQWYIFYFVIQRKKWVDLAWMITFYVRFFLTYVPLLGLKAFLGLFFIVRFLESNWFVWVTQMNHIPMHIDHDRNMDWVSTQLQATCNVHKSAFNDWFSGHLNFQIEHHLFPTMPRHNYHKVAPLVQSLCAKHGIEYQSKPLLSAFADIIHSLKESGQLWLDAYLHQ

delta-5-desaturase inhibitory activity (at liver microsome) Inhibitory activity (%) at 10 μM (delta-5-desaturase [1]; sodium salt, 10 µM) [%] | Binding inhibitory activity against compound bind to delta-5-desaturase Binding inhibition rate (%) at 10 μM (delta-5-desaturase [2]; 3 nM tritiated ligand of Reference Example 1, sodium salt) [%] | lowering rate (%) of arachidonic acid/dihomo-γ-linolenic acid ratio (delta-5-desaturase [3]) [%] | inhibition at 10 µM (delta-5-desaturase [1]) [%] | inhibition at 10 µM (delta-5-desaturase [2]) [%] | inhibition at 1 µM (delta-5-desaturase [4]) [%] | Structure (SMILES)
– | – | – | 91 | 89 | 91 | COCCOc1nccc2c(=O)n(-c3ccc(OCC(F)(F)F)cc3)c(OCCOC)nc12 [Example 35, 2,8-bis(2-methoxyethoxy)-3-[4-(2,2,2-trifluoroethoxy)phenyl]pyrido[3,4-d]pyrimidin-4(3H)-one]
– | – | – | 96 | 98 | 96 | O=c1[nH]ccc2c(=O)n(-c3ccc(OCC(F)(F)F)cc3)c(OCC(F)(F)F)nc12 [Example 31, 2-(2,2,2-trifluoroethoxy)-3-[4-(2,2,2-trifluoroethoxy)phenyl]-3,7-dihydropyrido[3,4-d]pyrimidine-4,8-dione]
– | – | – | 95 | 91 | 76 | CCSc1nc2[nH]c(=O)cnc2c(=O)n1-c1ccc(OCC(F)(F)F)cc1 [Example 38, 2-(ethylsulfanyl)-3-[4-(2,2,2-trifluoroethoxy)phenyl]pteridine-4,7(3H,8H)-dione]
– | – | – | 96 | 98 | 88 | CCOc1nc2c(=O)[nH]ccc2c(=O)n1-c1ccc(OCC(F)(F)F)cc1 [Example 32, 2-ethoxy-3-[4-(2,2,2-trifluoroethoxy)phenyl]-3,7-dihydropyrido[3,4-d]pyrimidine-4,8-dione]

The remaining lines, values behind:

Structure (SMILES) | delta-5-desaturase inhibitory activity (at liver microsome) Inhibitory activity (%) at 10 μM (delta-5-desaturase [1]; sodium salt, 10 µM) [%] | Binding inhibitory activity against compound bind to delta-5-desaturase Binding inhibition rate (%) at 10 μM (delta-5-desaturase [2]; 3 nM tritiated ligand of Reference Example 1, sodium salt) [%] | lowering rate (%) of arachidonic acid/dihomo-γ-linolenic acid ratio (delta-5-desaturase [3]) [%] | inhibition at 10 µM (delta-5-desaturase [1]) [%] | inhibition at 10 µM (delta-5-desaturase [2]) [%] | inhibition at 1 µM (delta-5-desaturase [4]) [%]
O=c1ccc2c(=O)n(-c3ccc(OCC(F)(F)F)cc3)c(OCC(F)(F)F)nc2[nH]1 [Example 12, 2-(2,2,2-trifluoroethoxy)-3-[4-(2,2,2-trifluoroethoxy)phenyl]pyrido[2,3-d]pyrimidine-4,7(3H,8H)-dione sodium salt] | 99 | 96 | 70 | – | – | –
CCSc1nc2c(c(=O)n1-c1ccc(OCC(F)(F)F)cc1)CCC(=O)N2 [Example 24, 2-(ethylsulfanyl)-3-[4-(2,2,2-trifluoroethoxy)phenyl]-5,6-dihydropyrido[2,3-d]pyrimidine-4,7(3H,8H)-dione] | – | – | – | 101 | 95 | 109
COc1ccc2c(=O)n(-c3ccc(OCC(F)(F)F)cc3)c(OCC(F)(F)F)nc2n1 [Example 5, 7-methoxy-2-(2,2,2-trifluoroethoxy)-3-[4-(2,2,2-trifluoroethoxy)phenyl]pyrido[2,3-d]pyrimidin-4(3H)-one] | – | – | – | 101 | 93 | 95
CS(=O)(=O)CCCOc1nc2[nH]c(=O)ccc2c(=O)n1-c1ccc(OCC(F)(F)F)cc1 [Example 13, 2-[3-(methylsulfonyl)propoxy]-3-[4-(2,2,2-trifluoroethoxy)phenyl]pyrido[2,3-d]pyrimidine-4,7(3H,8H)-dione] | – | – | – | 97 | 89 | 88
COc1ccc2c(=O)n(-c3ccc(OCC(F)(F)F)cc3)c(SC)nc2n1 [Example 2, 7-methoxy-2-(methylsulfanyl)-3-[4-(2,2,2-trifluoroethoxy)phenyl]pyrido[2,3-d]pyrimidin-4(3H)-one] | – | – | – | 102 | 94 | 107
CCSc1nc2nc(C(N)=O)ccc2c(=O)n1-c1ccc(OCC(F)(F)F)cc1 [Example 27, 2-(ethylsulfanyl)-4-oxo-3-[4-(2,2,2-trifluoroethoxy)phenyl]-3,4-dihydropyrido[2,3-d]pyrimidine-7-carboxamide] | – | – | – | 97 | 93 | 98
CCSc1nc2c(ccc(=O)n2C)c(=O)n1-c1ccc(OCC(F)(F)F)cc1 [Example 8, 2-(ethylsulfanyl)-8-methyl-3-[4-(2,2,2-trifluoroethoxy)phenyl]pyrido[2,3-d]pyrimidine-4,7(3H,8H)-dione] | – | – | – | 99 | 96 | 103
CCSc1nc2[nH]c(=O)ccc2c(=O)n1-c1ccc(OCC(F)(F)F)cc1 [Example 6, 2-(ethylsulfanyl)-3-[4-(2,2,2-trifluoroethoxy)phenyl]pyrido[2,3-d]pyrimidine-4,7(3H,8H)-dione] | – | – | – | 99 | 97 | 101
CCSc1nc2c(c(=O)n1-c1ccc(OCC(F)(F)F)cc1)CCNC2=O [Example 28, 2-(ethylsulfanyl)-3-[4-(2,2,2-trifluoroethoxy)phenyl]-3,5,6,7-tetrahydropyrido[3,4-d]pyrimidine-4,8-dione] | – | – | – | 92 | 92 | 89
